From patent US20250228242A1 (priority 2021, published 2025)
Where a name gives a salt, the structure may show the parent alone.

Key:
Phytophthora infestans = assay: whole plant or invertebrate; assay type: in vivo; details: in Solanum tuberosum, 120 h, read-out: P. infestans % inhibition
Albugo candida [1] = assay: Albugo candida on A. thaliana, syringe infiltration of compound, visual scoring of disease severity; assay type: in vivo; details: in Arabidopsis thaliana, read-out: A. candida Inhibitory effect
Description: A. thaliana seeds were stratified on moist soil (Einheitserde type A240, Stender, Germany) for seven days at 4° C. in darkness, before transfer into growth chambers with short day conditions (10 h light, 14 h darkness, 23/20° C., 60% humidity). After three weeks, seedlings were singularised and grown for three weeks further. After six weeks, A. thaliana plants were used for experiments and after infection they were transferred into SANYO (Panasonic MLR-352, Japan) growth cabinets (10 h light, 14 h darkness, 22/16° C.). Potato plants were grown from tubers by covering them with soil (Einheitserde type A240, Stender, Germany). The leaves of adult plants (˜4-6 weeks old) were cut off and kept in a moist environment for infection assays.
For regular Albugo sp. infections A. thaliana Ws-0 was sprayed with an Albugo sp. conidiospores solution. These spore solutions were prepared by harvesting sporulating leaf material at 14 days post infection (dpi) and adding water for rehydration of the spores. Spore solutions were hold on ice for ˜1 h, before filtering through miracloth (Merck Millipore, Germany) to remove dirt. Spores were counted and the solutions diluted to 22.2×10^4 conidiospores/ml. Albugo sp. spore solutions were sprayed uniformly on A. thaliana leaves (4.5 ml per six plants) using an airbrush gun. During spraying, plants were placed in a plastic bag and afterwards transferred into a cold room to incubate at 4° C. in darkness (˜16 h). The next morning, plants were transferred into plant growth cabinets, but left in clear bags to keep humidity high, which supports Albugo sp. infections. ˜24 h later plants were unbagged and further incubated under normal plant growth conditions.
Afterwards, the plants were kept in the lab for ˜1 h to let the leaves equilibrate again. The infiltrated plants were infected with Albugo sp., following the above-mentioned protocol. At 7 dpi, infiltrated leaves were phenotypically scored and harvested. The samples were frozen in liquid nitrogen and stored at −80° C. until DNA extraction for growth quantification via qPCR. For experiment 4, A. candida spore solutions were prepared as before and mixed with 10 mM stock solution of the test compound (100 μM end conc.). The mixture of spore solution and test compound was sprayed and incubated as for experiment 2 and 3.
• Fungicidal activity against other oomycetes was tested using isolates of the obligate biotrophic pathogen genus Albugo on Arabidopsis thaliana. The test compounds, 100 μM in 1% DMSO, were syringe infiltrated into adult A. thaliana and subsequently sprayed with aqueous spore solutions of Albugo laibachii or A. candida. In primary screenings, disease severity was visually screened and scored at nine days post infection (dpi) (Table 2+3).

Albugo candida [2] = assay: Albugo candida growth on A. thaliana after syringe infiltration, quantified via qPCR; assay type: in vivo
Albugo laibachii = Albugo laibachii growth on A. thaliana after syringe infiltration, quantified via qPCR; assay type: in vivo; details: Albugo laibachii, in Arabidopsis thaliana, 100 μM, qPCR at 7 dpi, A. thaliana
A. candida = A. candida growth on A. thaliana after spray application of spore solution mixed with compound, qPCR; assay type: in vivo, Albugo candida; details: Candida, in Arabidopsis thaliana; spray application of spore solution mixed with 100 μM compound in 1% DMSO, qPCR at 7 dpi, A. thaliana
[3] = tested on: Pseudomonas syringae pv. tomato (Pto) DC3000; assay: Bacterial liquid culture growth curves (OD600), Pto DC3000; details: 18.5 h, read-out: Absolute growth rate relative to mock control, Pto DC3000
Rhodococcus sp. = assay: Bacterial liquid culture growth curves (OD600), Rhodococcus sp.; details: 18.5 h, read-out: Absolute growth rate relative to mock control, Rhodococcus sp.
P. infestans = assay: whole plant or invertebrate; assay type: in vivo; details: Phytophthora infestans, in Solanum tuberosum, read-out: P. infestans % inhibition
Phakopsora pachyrhizi = assay: Soybean rust on soybean (Glycine max) leaves, syringe infiltration of compound, visual scoring; assay type: in vivo; details: 100 μM in 1% DMSO syringe infiltrated into adult G. max, visually scored at nine dpi, read-out: P. pachyrhizi Inhibitory effect
Description: Soybean plants were grown from pregerminated soybeans by putting them 1 cm deep into soil (Einheitserde type A240, Stender, Germany). Plants were grown in growth cabinets (16h light at 400 μM/m^2s and 22-24° C.-8h dark at 21-22° C.). 14 days after soil planting, plants were used for infection and experiments. Following inoculation with rust spores, plants were transferred back to growth cabinet prior to symptom screening.
Infiltration was always done through somata at the lower site of the leaf under light conditions to ensure stomata are open. Afterwards, the plants were kept in the growth cabinet for ˜1 h to let the leaves equilibrate again. The infiltrated plants were inoculated with Soybean rust spores using an airbrush and 0.01% Tween20 to ensure homogenous wetting. Plants were afterwards incubated for 24h in the dark at 24° C. and 100% humidity. At 9 dpi, infiltrated leaves were phenotypically scored.
• Fungicidal activity against Soybean rust was tested using a highly virulent stain of Phakopsora pachyrhizi and commercially available Soybeans.
The test compounds, […] 100 μM in 1% DMSO, were syringe infiltrated into adult G. max plants and subsequently sprayed with aqueous spore solutions and 0.01% Tween. In primary screenings, disease severity was visually screened and scored at nine days post infection (dpi) (Table 8).

Compound: Br.Oc1ccc(-c2noc(-c3ccc(O)c(O)c3)n2)cc1O [Compound 24, 3,5-Bis(3,4-Dihydroxyphenyl)-1,2,4-oxadiazole hydrobromide]
- inhibition at 100 µM (Phytophthora infestans): 80%
- inhibition at 100 µM (Albugo candida [1]): > 70%
- inhibition at 100 µM (Albugo candida [2]; Albugo candida, in Arabidopsis thaliana, 100 μM, qPCR at 7 dpi, A. thaliana): 80%
- inhibition of A. candida growth (in words) (Albugo candida [2]; Table 4, qPCR at 7 dpi): strong inhibition
- inhibition at 100 µM (Albugo laibachii): 16%
- inhibition at 100 µM (A. candida): 41%
- activity at 100 µM [3]: 95%
- activity at 100 µM (Rhodococcus sp.): 19%

Compound: CCc1ccc(-c2cc(-c3cccc(NC(=O)[C@@H](N)CO)c3)[nH]n2)cc1 [Compound 129, (2S)-2-Amino-N-{3-[3-(4-ethylphenyl)-1H-pyrazol-5-yl]phenyl}-3-hydroxypropanamide hydrochloride]
- inhibition at 100 µM (P. infestans): 97%
- inhibition at 100 µM (Phakopsora pachyrhizi): > 70%

Compound: O=C(c1ccc(-c2cc(-c3ccc(F)cc3)[nH]n2)cc1)N1CCOCC1 [Compound 143, {4-[5-(4-Fluorophenyl)-1H-pyrazol-3-yl]phenyl}(morpholin-4-yl)methanone]
- inhibition at 100 µM (P. infestans): 94%
- inhibition at 100 µM (Phakopsora pachyrhizi): 5 to 30%
